Measurements reported in ChEMBL document CHEMBL1145849, “QSAR and the rational design of long-acting dual D2-receptor/beta 2-adrenoceptor agonists” (J Med Chem, 2003).

Experiments:
[1] = target: Beta-2 adrenergic receptor (Cavia porcellus) (UniProt Q8K4Z4)
Description: In vitro beta-2 duration was determined using electrically stimulated guinea-pig isolated trachea superfusion system

[2] = target: Beta-2 adrenergic receptor (Cavia porcellus) (UniProt Q8K4Z4); details: Trachea
Description: Beta-2-adrenoceptor potency was determined in rings of guinea-pig isolated trachea

[3] = physchem; details: octanol/water, pH 7.4, logD
[4] = physchem
Description: Ionization constant (pKa)

Sequence of Beta-2 adrenergic receptor (Cavia porcellus) (Q8K4Z4 whole entry, looked up): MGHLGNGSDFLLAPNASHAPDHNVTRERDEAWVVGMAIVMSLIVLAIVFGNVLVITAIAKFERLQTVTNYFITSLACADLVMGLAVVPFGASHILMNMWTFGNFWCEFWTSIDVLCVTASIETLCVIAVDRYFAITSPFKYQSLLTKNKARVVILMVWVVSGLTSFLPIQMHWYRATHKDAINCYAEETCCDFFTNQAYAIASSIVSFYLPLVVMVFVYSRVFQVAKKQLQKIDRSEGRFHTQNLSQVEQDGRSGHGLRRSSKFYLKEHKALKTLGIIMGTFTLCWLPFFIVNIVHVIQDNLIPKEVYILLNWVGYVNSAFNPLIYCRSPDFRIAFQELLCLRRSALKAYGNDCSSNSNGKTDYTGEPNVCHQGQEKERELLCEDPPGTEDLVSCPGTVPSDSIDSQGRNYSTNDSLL

| Compound | Beta2 duration [1] | p[A]50 [2] | logD [3] | pKa [4] |
| --- | --- | --- | --- | --- |
| O=S(=O)(CCCCCCNCCc1ccc(O)c2nc(O)sc12)CCc1ccccc1 | > 180 min | 7 | 1.44 | > 8 |
| O=S(=O)(CCCNCCc1ccc(O)c2nc(O)sc12)NCCOCc1ccccc1 | 72 min | 7.4 | 1.11 | > 8 |
| O=S(=O)(CCCNCCc1ccc(O)c2nc(O)sc12)CCOCCOc1ccccc1 | 52 min | 7.44 | 1.13 | > 8 |
| O=S(=O)(CCCOCCc1ccc(NS(=O)(=O)c2ccccc2)cc1)CCNCCc1ccc(O)c2nc(O)sc12 | > 180 min | 7.7 | 2.88 | < 8 |
| O=S(=O)(CCCNCCc1ccc(O)c2nc(O)sc12)CCSCCc1ccccc1 | > 180 min | 7.57 | 2.34 | > 8 |
| O=[N+]([O-])c1ccc(CCOCCCSCCNCCc2ccc(O)c3nc(O)sc23)cc1 | > 180 min | 6.78 | 3.29 | > 8 |
| O=S(=O)(CCOCCc1ccccc1)NCCCNCCc1ccc(O)c2nc(O)sc12 | 69 min | 7.51 | 1.22 | > 8 |
| Oc1nc2c(O)ccc(CCNCCSCCCOCCc3ccccc3)c2s1 | > 180 min | 8.36 | 2.86 | > 8 |
| Oc1nc2c(O)ccc(CCNCCCSCCOCCCc3ccccc3)c2s1 | > 180 min | 7.86 | 2.8 | > 8 |
| O=S(=O)(CCCOCCc1ccc(O)cc1)CCNCCc1ccc(O)c2nc(O)sc12 | 32 min | 8.65 | 1.91 | < 8 |
| O=[N+]([O-])c1ccc(CCOCCCS(=O)(=O)CCNCCc2ccc(O)c3nc(O)sc23)cc1 | 77 min | 6.73 | 2.32 | < 8 |
| O=C(NCCCCCCNCCc1ccc(O)c2nc(O)sc12)Nc1ccccc1 | 60 min | 7.01 | 1.26 | > 8 |
| Nc1ccccc1CCOCCS(=O)(=O)CCCNCCc1ccc(O)c2nc(O)sc12 | 33 min | 7.46 | 1.17 | > 8 |
| O=S(=O)(CCCNCCc1ccc(O)c2nc(O)sc12)CCOCCc1cccc2ccccc12 | > 180 min | 7.73 | 2.54 | > 8 |
| Oc1nc2c(O)ccc(CCNCCCSCCOCCOc3ccccc3)c2s1 | > 180 min | 7.06 | 2.11 | > 8 |
| O=C(CCCOCCc1ccccc1)NCCNCCc1ccc(O)c2nc(O)sc12 | 71 min | 7.56 | 1.55 | > 8 |
| Oc1nc2c(O)ccc(CCNCCSCCCOCCCc3ccccc3)c2s1 | > 180 min | 7.27 | 3.61 | > 8 |
| Oc1nc2c(O)ccc(CCNCCCOCCSCCc3ccccc3)c2s1 | > 180 min | 7.03 | 1.73 | > 8 |
| Oc1nc2c(O)ccc(CCNCCCSCCOCCc3ccccn3)c2s1 | 75 min | 7.32 | 0.83 | > 8 |
| Oc1nc2c(O)ccc(CCNCCC(F)(F)CCCOCCc3ccccc3)c2s1 | > 180 min | 7.77 | 3.26 | > 8 |
| O=C(CCOCCCc1ccccc1)NCCNCCc1ccc(O)c2nc(O)sc12 | 150 min | 8.63 | 1.91 | > 8 |
| O=S(=O)(CCCOCCCc1ccccc1)CCNCCc1ccc(O)c2nc(O)sc12 | 157 min | 7.35 | 3.13 | < 8 |
| CC(C)(CCCCOCCc1ccccc1N)CNCCc1ccc(O)c2nc(O)sc12 | > 180 min | 7.58 | – | > 8 |
